Results from article PMC8819291, “Adaptively evolved human oral actinomyces‐sourced defensins show therapeutic potential” (EMBO Molecular Medicine, 2021).
Marks after values point to notes of the source that are not given here. Where a SMILES comes first, the peptide text is derived from it. Bridges are numbered along the chain shown (N, C = ends).

What was measured:
[1] = system: Bacillus megaterium CGMCC 1.0459; assay: Inhibition-zone assay (lethal concentration); format: cell-based; settings: LB, 37°C
Excerpt: (§1) Bacterial media used here included: Luria‐Bertani (LB) medium, THY medium (30 g Todd Hewitt broth and 5 g Yeast extract per liter), and tryptic soy broth (TSB) (Oxoid, Basingstoke, UK); Broth medium and brain–heart infusion (BHI) medium (Beijing Landbridge technology Limited by Share Ltd., Beijing, China); Potato dextrose (PD) medium (self‐prepared).
(§2) In brief, an overnight bacterial culture from a single colony was inoculated into fresh medium and grew to late log‐phase. A 10‐μl aliquot of each culture was diluted in 6‐ml pre‐heated medium containing 0.8% agar. The mixture was spread on a 9‐cm Petri dish, giving a depth of 1 mm. After settling, 3‐mm wells were punched in the plate and then 2‐μl peptide samples of different concentrations were added to each well. The agar plates were incubated overnight at indicated temperatures (Table EV4). A lethal concentration (C L ) was calculated from a plot of d^2 against log n, where d is the diameter (in cm) and n is the amount of sample applied in the well (in nmol). The plot is linear, and thus C L can be calculated from the slope (k) and the intercept (m) of this plot.

[2] = system: Bacillus subtilis CGMCC 1.2428; assay: Inhibition-zone assay (lethal concentration); format: cell-based; settings: LB, 37°C
Excerpt: as §1, §2

[3] = system: Enterococcus faecalis V583 (ATCC 700802); assay: Inhibition-zone assay (lethal concentration); format: cell-based; settings: BHI, 37°C
Excerpt: as §1, §2

[4] = system: Lysinibacillus fusiformis; assay: Inhibition-zone assay (lethal concentration); format: cell-based; settings: Broth Medium, 37°C
Excerpt: as §1, §2

[5] = system: Methicillin‐resistant Staphylococcus aureus P1374; assay: Inhibition-zone assay (lethal concentration); format: cell-based; settings: Broth Medium, 37°C
Excerpt: as §1, §2

[6] = system: Methicillin‐resistant Staphylococcus aureus P1386; assay: Inhibition-zone assay (lethal concentration); format: cell-based; settings: Broth Medium, 37°C
Excerpt: as §1, §2

[7] = system: Staphylococcus aureus CGMCC 1.89; assay: Inhibition-zone assay (lethal concentration); format: cell-based; settings: Broth Medium, 37°C
Excerpt: as §1, §2

[8] = system: Staphylococcus aureus J685; assay: Inhibition-zone assay (lethal concentration); format: cell-based; settings: Broth Medium, 37°C
Excerpt: as §1, §2

[9] = system: Staphylococcus aureus J698; assay: Inhibition-zone assay (lethal concentration); format: cell-based; settings: Broth Medium, 37°C
Excerpt: as §1, §2

[10] = system: Staphylococcus aureus J700; assay: Inhibition-zone assay (lethal concentration); format: cell-based; settings: Broth Medium, 37°C
Excerpt: as §1, §2

[11] = system: Staphylococcus aureus J706; assay: Inhibition-zone assay (lethal concentration); format: cell-based; settings: Broth Medium, 37°C
Excerpt: as §1, §2

[12] = system: Staphylococcus aureus J708; assay: Inhibition-zone assay (lethal concentration); format: cell-based; settings: Broth Medium, 37°C
Excerpt: as §1, §2

[13] = system: Staphylococcus aureus J710; assay: Inhibition-zone assay (lethal concentration); format: cell-based; settings: Broth Medium, 37°C
Excerpt: as §1, §2

[14] = system: Streptococcus mutans CGMCC 1.2499 (ATCC 25175); assay: Inhibition-zone assay (lethal concentration); format: cell-based; settings: Broth Medium, 37°C
Excerpt: as §1, §2

[15] = system: Streptococcus pneumoniae D39; assay: Inhibition-zone assay (lethal concentration); format: cell-based; settings: THY, 5% CO2, 37°C
Excerpt: as §1, §2

[16] = system: Streptococcus pneumoniae R6; assay: Inhibition-zone assay (lethal concentration); format: cell-based; settings: THY, 5% CO2, 37°C
Excerpt: as §1, §2

[17] = system: Streptococcus pneumoniae ST556 (StrR); assay: Inhibition-zone assay (lethal concentration); format: cell-based; settings: streptomycin‐resistant strain; THY, 5% CO2, 37°C
Excerpt: as §1, §2

[18] = system: Streptococcus pneumoniae ST556; assay: Inhibition-zone assay (lethal concentration); format: cell-based; settings: THY, 5% CO2, 37°C
Excerpt: as §1, §2

[19] = system: Streptococcus pneumoniae TIGR4; assay: Inhibition-zone assay (lethal concentration); format: cell-based; settings: THY, 5% CO2, 37°C
Excerpt: as §1, §2

[20] = system: Streptococcus salivarius CGMCC 1.2498 (ATCC 7073); assay: Inhibition-zone assay (lethal concentration); format: cell-based; settings: Broth Medium, 37°C
Excerpt: as §1, §2

[21] = system: Streptococcus sanguinis CGMCC 1.2497 (ATCC 49295); assay: Inhibition-zone assay (lethal concentration); format: cell-based; settings: Broth Medium, 37°C
Excerpt: as §1, §2

[22] = system: Streptomyces griseus NBRC 13350; assay: Inhibition-zone assay (lethal concentration); format: cell-based; settings: PD, 28°C
Excerpt: as §1, §2

[23] = system: Streptomyces scabiei CGMCC 4.1765 (ATCC 49173); assay: Inhibition-zone assay (lethal concentration); format: cell-based; settings: Tryptone Soy Broth (TSB), 30°C
Excerpt: as §1, §2

[24] = system: penicillin‐resistant Staphylococcus aureus P1383; assay: Inhibition-zone assay (lethal concentration); format: cell-based; settings: Broth Medium, 37°C
Excerpt: as §1, §2

[25] = system: penicillin‐resistant Staphylococcus epidermidis P1389; assay: Inhibition-zone assay (lethal concentration); format: cell-based; settings: Broth Medium, 37°C
Excerpt: as §1, §2

[26] = system: penicillin‐sensitive Staphylococcus epidermidis P1111; assay: Inhibition-zone assay (lethal concentration); format: cell-based; settings: Broth Medium, 37°C
Excerpt: as §1, §2

[27] = system: MRSA P1374; assay: Cytoplasmic accumulation of UMP; format: cell-based, Staphylococcus aureus; settings: 20 × C L, 30 min; RP-HPLC, UV 260 nm
Method: To analyze the cytoplasmic nucleotide pool, we carried out the cytoplasmic UMP accumulation experiment according to the literature (Brötz et al, [1997]) with some modifications. MRSA P1374 cells were grown in 40‐ml broth medium at 37°C to an OD600 of 0.5. The culture was supplemented with 130 μg/ml chloramphenicol. […] After 30 min of incubation, UMP was extracted from the harvested cells by stirring them into boiling water. The suspension was then centrifuged (43,000 g, 60 min) at 4°C and the supernatant was lyophilized and dissolved in 400 μl of 50 mM ammonium acetate (pH 5.2) and adjusted to pH 2.0 with acetic acid. After acidification, the supernatant was fractionated by RP‐HPLC on Hypersil ODS (250 × 4.6 mm; Thermo Scientific) and UMP was eluted from the column with a linear gradient from 0 to 40% methanol in 50 mM NH4Ac (pH 5.2) within 40 min with a flow rate of 1 ml/min. UV absorbance was monitored at 260 nm. UMP was identified by ultraperformance liquid chromatography–high resolution mass spectrometry (UPLC‐HRMS) and MALDI‐TOF. Both methods yielded consistent results.

[28] = system: fresh erythrocytes from the female ICR mice; assay: Hemolysis assay; format: cell-based, Mus musculus
Method: Hemolytic activity of peptides against fresh erythrocytes from the female ICR mice (Mus musculus) (25 g, 6 weeks of age) was assayed according to the standard method (Zhu et al, [2012]). Peptides were diluted with 0.9% NaCl to the indicated concentration. The percentage of hemolysis is determined as (A pep–A blank)/(A tot–A blank) × 100, in which “A” represents absorbance measured at 570 nm. A blank and A pep were evaluated in the absence or presence of peptides. One hundred percent hemolysis (A tot) was obtained in the presence of 1% Triton X‐100.

## CC[C@H](C)[C@@H]1NC(=O)[C@H](CCCCN)NC(=O)CNC(=O)[C@H](CCCNC(=N)N)NC(=O)[C@@H]2CSSC[C@H](NC(=O)CNC(=O)[C@H](Cc3ccccc3)NC(=O)CN)C(=O)N3CCC[C@H]3C(=O)N[C@@H](Cc3c[nH]c4ccccc34)C(=O)N[C@@H](CC(N)=O)C(=O)N[C@@H](C)C(=O)N[C@@H](Cc3ccc(O)cc3)C(=O)N[C@@H](CCC(=O)O)C(=O)N[C@H]3CSSC[C@H](NC(=O)[C@H]([C@@H](C)O)NC(=O)[C@H](CCC(N)=O)NC(=O)[C@H](CCCNC(=N)N)NC1=O)C(=O)N[C@@H](Cc1c[nH]cn1)C(=O)N[C@H](C(=O)N[C@@H](Cc1ccc(O)cc1)C(=O)O)CSSC[C@H](NC(=O)[C@H](Cc1c[nH]cn1)NC(=O)[C@H](CCCNC(=N)N)NC(=O)[C@H](CC(=O)O)NC3=O)C(=O)N[C@@H](C(C)C)C(=O)N[C@@H](CO)C(=O)N[C@@H](CCCCN)C(=O)NCC(=O)N[C@@H](Cc1ccc(O)cc1)C(=O)N[C@@H]([C@@H](C)O)C(=O)NCC(=O)NCC(=O)N[C@@H](CC(N)=O)C(=O)N2 [AMSIN] (H-GFGCPWNAYECDRHCVSKGYTGGNCRGKIRQTCHCY-OH; disulfide 4-25, 11-33, 15-35; N-terminus and C-terminus assumed)
[1]; AMSIN alone
  Lethal concentration (C L): 0.11 µM
[1]; In combination with HNP1&2
  Lethal concentration (C L): 0.038 ^a µM
[1]; In combination with hLZc
  Lethal concentration (C L): 0.045 ^b µM
[2]
  Lethal concentration (C L): 1.00 µM
[3]
  Lethal concentration (C L): 4.65 µM
[4]
  Lethal concentration (C L): 0.27 µM
[5]
  Lethal concentration (C L): 0.62 µM
[6]
  Lethal concentration (C L): 0.74 µM
[7]
  Lethal concentration (C L): 5.20 µM
[8]
  Lethal concentration (C L): 10.40 µM
[9]
  Lethal concentration (C L): 5.20 µM
[10]
  Lethal concentration (C L): 5.20 µM
[11]
  Lethal concentration (C L): 5.20 µM
[12]
  Lethal concentration (C L): 1.14 µM
[13]
  Lethal concentration (C L): 2.60 µM
[14]; AMSIN alone
  Lethal concentration (C L): 1.01 µM
[14]; In combination with HNP1&2
  Lethal concentration (C L): 0.38 ^a µM
[14]; In combination with hLZc
  Lethal concentration (C L): 0.56 ^b µM
[15]
  Lethal concentration (C L): 0.09 µM
[16]
  Lethal concentration (C L): 0.14 µM
[17]
  Lethal concentration (C L): < 0.14 µM
[18]
  Lethal concentration (C L): 0.14 µM
[19]
  Lethal concentration (C L): 0.14 µM
[20]
  Lethal concentration (C L): 0.49 µM
[21]
  Lethal concentration (C L): 1.41 µM
[22]
  Lethal concentration (C L): 2.89 µM
[23]
  Lethal concentration (C L): 2.01 µM
[24]
  Lethal concentration (C L): 4.28 µM
[25]
  Lethal concentration (C L): 1.14 µM
[26]
  Lethal concentration (C L): 5.20 µM
[27]
  Cytoplasmic accumulation of UMP: accumulated
[28]; 6.25 μM, absorbance 570 nm, 100% = 1% Triton X‐100, technical replicate 1
  Hemolysis (%): 1.49%
[28]; 6.25 μM, technical replicate 2
  Hemolysis (%): 1.24%
[28]; 6.25 μM, technical replicate 3
  Hemolysis (%): 1.65%
[28]; 12.5 μM, technical replicate 1
  Hemolysis (%): 2.48%
[28]; 12.5 μM, technical replicate 2
  Hemolysis (%): 1.98%
[28]; 12.5 μM, technical replicate 3
  Hemolysis (%): 2.04%
[28]; 25 μM, technical replicate 1
  Hemolysis (%): 6.96%
[28]; 25 μM, technical replicate 2
  Hemolysis (%): 5.2%
[28]; 25 μM, technical replicate 3
  Hemolysis (%): 5.2%
